Experimental data published in US6887981B2, “Natural antibacterial peptide, the nucleotide sequence encoding it and the use thereof” (Shanghai CAS Shenglonda Biotech (Group) Co., Ltd., priority 2002, dated 2005).

B1: Bin1b: natural antibacterial peptide of beta-defensin family expressed in rat caput epididymidis; SEQ ID NO:2, mature form SEQ ID NO:3 (protein, listed as Homo sapiens)
chain: MKVLLLFAVFFCLVQRNSGDIPPGIRNTVCFMQRGHCRLFMCRSGERKGDICSDPWNRCCVSSSIKNR
modifications: ends and bridges not checked

How the values were obtained:
[1] = EDS rat model, androgen (serum testosterone) level after EDS injection; assay type: in vivo, Sprague-Dawley rat; details: adult rat, intraperitoneal EDS 7.5 mg/100 g bodyweight; restored in about two weeks
Experimental: The “▴” line represents rat serum testosterone level at various time intervals after EDS injection. The “♦” line represents rat Bin1b expression changes which are calibrated by 18s level.
Adult Sprague-Dawley was intraperitoneally injected with EDS (7.5 mg/100 g bodyweight) in DMSO-H2O (1:3, v/v). The rats were sacrificed on day 1, 3, 7, 14, 21, 28 and 42. The rat without EDS injection served as the negative control. 20 ug total RNA was extracted from rat caput epididymis, fractionated by 1.2% formaldehyde agarose gel electrophoresis, blotted onto Hybond-N+ membrane and hybridized with a probe located at Bin1b cDNA 3′ terminal and 18s ribosome RNA probe.

E. coli = experiment: Antimicrobial activity of secretions of primary epididymal epithelial cultures, CFU counting; assay type: cell-based; details: concluded from caput culture secretions and antisense block
Experimental: FIG. 7A. […] 100 colony forming units (CFU) of E. coli was added to cultures 16 hours prior to examination.
A total of 100 colony-forming units (CFU) of E. coli was added to the apical compartment of the epithelial cells separately from caput epididymis and cauda epididymis. The medium was collected 16 hours later for CFU counting.

Molecule	secretion of androgen after EDS injection [1]	antimicrobial activity of Bin1b (E. coli)
CS(=O)(=O)OCCOS(C)(=O)=O [EDS, Ethylene Dinethamesulfonate]	decreased immediately	
B1		antimicrobial activity
